Where “and” joins values, the source holds several entries; their conditions need not be identical. Equal entries are not always repeated. Where two headings read alike, the source gives them in different places.
Columns and labels:
[1] = test system: de-endothelialized, pressurized MCA segments (C57BL/6); assay: Cerebral artery diameter in vitro, de-endothelialized pressurized MCA segments; parameters: species or system mouse
Description: Eight-12 week-old C57BL/6J and KCNMB1^−/− on C57BL/6 background mice of both sexes were deeply anesthetized with isoflurane via inhalation in a tightly sealed jar. Resistance size MCAs (~100 μm in external diameter) were dissected out of the mouse brains after animal euthanasia with sharp scissors. For de-endothelialized records, the endothelium was removed by passing an air bubble into the vessel lumen for 90 s[30]. This method has been consistently used by our group and validated using endothelium-dependent versus endothelium-independent vasodilators[16],[26]. Arteries were cannulated as previously described by our group[26],[40]. MCAs were cut into 5 to 10 mm-long segments under a microscope (Nikon SMZ645). The segment was cannulated at each end, and the artery exterior was continuously perfused with physiologic sodium saline (PSS) of the following composition (mM): 119 NaCl, 4.7 KCl, 1.2 KH2PO4, 1.6 CaCl2, 1.2 MgSO4, 0.023 EDTA, 11 glucose, 24 NaHCO3, pH=7.4. PSS was continuously bubbled with an O2/CO2/N2 (21/5/74%) gas mixture and maintained at 35–37 °C. The artery external wall diameter was measured using the automatic edge-detection function of lonWizard software (lonOptix) via Sanyo VCB-3512T camera (Sanyo Electric Co.). Arteries were first incubated at an intravascular pressure of 10 mm Hg for 10 min. Then intravascular pressure was increased to 60 mmHg and held steady throughout the experiment to induce myogenic tone development and maintenance[19],[30],[51]. Each artery segment was exposed to PROG, PROG-oxime (in presence and absence of 1 µM paxilline) only once to avoid development of desensitization during repeated applications of PROG-containing solution. To determine arterial viability, arterial contractility was probed with a high KCl solution at the end of each experiment. The high KCl solution was composed of the following composition (mM): 63.7 NaCl, 60 KCl, 1.2 KH2PO4, 1.2 MgSO4, 0.023 EDTA, 11 glucose, 24 NaHCO3, 1.6 CaCl2, pH=7.4. Like PSS, the high-KCl solution was continuously bubbled with O2/CO2/N2 (21/5/74%) gas mixture and maintained at 35–37 °C.

[2] = target: T1, BK β1 subunit (KCNMB1 product) (Rattus norvegicus, UniProt P97678); assay: Thermal unfolding (microscale thermophoresis, Prometheus) of purified wt β1; type: binding; conditions: for effect on thermal unfolding / binding: vs DMSO
T1 construct: FLAG (DYKDDDDK); made in house; host or cells: CHO cells, transient transfection, anti-flag immunoprecipitation
T1 sequence (P97678 1-191): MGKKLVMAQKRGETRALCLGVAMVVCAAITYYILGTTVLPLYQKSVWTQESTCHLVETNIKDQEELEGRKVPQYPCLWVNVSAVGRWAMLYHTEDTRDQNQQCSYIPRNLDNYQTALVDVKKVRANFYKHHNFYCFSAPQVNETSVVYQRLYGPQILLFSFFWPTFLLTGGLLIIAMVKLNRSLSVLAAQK
Description: (§1) BK channel-forming slo1 cDNA (cbv1 isoform; AY330293) was cloned from rat cerebral artery SM cells, and inserted into pcDNA3.1 vector as described. BK β1 cDNA (KCNMB1 product; NP_011452; FJ154955) were isolated from rat cerebral artery SM cells and cloned as described. β4 cDNA (KCNMB4; NP_055320; AY028605) were generously provided by Dr. Ligia Toro. CHO cells were transiently transfected with cbv1 ± β1-, or β4-carrying pcDNA3.1 using X-tremeGENE HP (Sigma-Aldrich). Mutations to β1/4 cDNAs were conducted by Genscript, with sequences being confirmed to be >99% identical to KCNMB1 product; NP_011452 or β4 KCNMB4; NP_055320; respectively. β1/4 and mutant constructs were flag-tagged (DYKDDDDK-tag) by Genscript services for subsequent immunoprecipitation and use in microscale thermophoresis studies.
Wt β1, wt β4 and mutant constructs were purified by immunoprecipitation using Dynabeads Protein G Kit (10007D by Invitrogen) and following the manufacturer’s instructions. Rabbit polyclonal anti-flag antibody (10 µg; Abcam, Cat# ab205606, RRID:AB_2916341) was cross-linked with dynabeads. Transfected CHO cell lysate supernatant was divided into aliquots containing […] per column. Following precipitation, kit instructions for non-denaturing elutions were followed; one elution of 30 µl was collected for each column, and pH was adjusted to 7.5 using UltraPure 1 M Tris-HCI buffer pH 7.5 (cat# 15567027 by Fisher Scientific). PROG stock or vehicle control (DMSO) was added to the eluate to reach PROG final concentrations (0.004-40 µM), all dissolved within the same concentration of DMSO. Glass capillaries were prepared and loaded in triplicates into Prometheus (Nanotemper) and heated from 15° to 95 °C at a rate of 1°/min, the largest thermal scale available to run in the Nanotemper PR.therm-control software. The unfolding profile of a protein is a plot of its fluorescence signal against temperature. The protein is heated at a defined ramp over a specified temperature range. During the heating process, fluorescence is recorded at 330 and 350 nm. The resulting fluorescence ratio change is then analyzed for onset and inflection points. The temperature of onset and inflection is determined using built-in analysis function in Nanotemper PR.therm-control software. The onset of unfolding or aggregation is the temperature at which the channel conformation (unfolding or aggregation) process first starts. […] Onset and inflection points were validated by comparing the first-derivative variations between technical triplicates (high degrees of variations in the first derivative are shown in Supplementary Fig. 1b, c). CRC data obtained from microscale thermophoresis experiments were fitted to a Boltzmann function of the type: y=A1−A2/1+e^x−x0+A2 using Origin 2020 software (OriginLab; OriginLab Corporation).

[3] = test system: BK β4 subunit (KCNMB4 product); assay: Thermal unfolding (MST) of purified wt β4; type: binding; parameters: delta (Δ) of onset to inflection point: unit not given here
Description: as §1
Wt β1, wt β4 and mutant constructs were purified by immunoprecipitation using Dynabeads Protein G Kit (10007D by Invitrogen) and following the manufacturer’s instructions. […] The unfolding profile of a protein is a plot of its fluorescence signal against temperature. […] During the heating process, fluorescence is recorded at 330 and 350 nm. The resulting fluorescence ratio change is then analyzed for onset and inflection points. The temperature of onset and inflection is determined using built-in analysis function in Nanotemper PR.therm-control software. […]

[4] = 10 μM in the presence of 1 μM paxilline
[5] = Δ onset to inflection vs concentration

Row | SMILES | vasoactive response of MCA segments [1, 4] | vasoactive response of MCA segments ([1]; 10 μM, male and female mice) | percent changes in MCA diameter ([1]; male mice, 10 μM PROG, individual arterial segments) | concentrations optimal to bind β1 as determined by MST [2] | delta (Δ) of onset to inflection point ([2]; 0.004 µM PROG, individual records (Fig 1B)) | delta (Δ) of onset to inflection point ([2]; 0.04 µM PROG, individual records (Fig 1B)) | delta (Δ) of onset to inflection point ([2]; 0.4 µM PROG, individual records (Fig 1B)) | delta (Δ) of onset to inflection point ([2]; 1.3 µM PROG, individual records (Fig 1B)) | delta (Δ) of onset to inflection point ([2]; 4 µM PROG, individual records (Fig 1B)) | delta (Δ) of onset to inflection point ([2]; 10 µM PROG, individual records (Fig 1B)) | delta (Δ) of onset to inflection point ([2]; 10 μM PROG, individual records (Fig 1C, SFig1A)) | delta (Δ) of onset to inflection point ([2]; 40 µM PROG, individual records (Fig 1B)) | effect on thermal unfolding / binding [2] | high-affinity binding process: concentration at maximum [2, 5] | low-affinity binding process: concentration at maximum [2, 5] | EC50 ([2]; Δ onset to inflection vs concentration, read-out: high-affinity binding process: 50% value) | EC50 ([2]; Δ onset to inflection vs concentration, read-out: low-affinity binding process: 50% value) | delta (Δ) of onset to inflection point ([3]; 10 μM PROG, individual records (Fig 1C)) | effect on thermal unfolding / binding ([3]; 4–10 μM)
1 | CC(=O)[C@H]1CC[C@H]2[C@@H]3CCC4=CC(=O)CC[C@]4(C)[C@H]3CC[C@]12C [PROG, Progesterone] | lost | dilated MCA segments | 4.2471% and 1.678% and 1.882% and 1.946% and 2.105% and 8.38% and 2.776% and 5.128% and 1.929% and 4.348% | 4 to 10 µM | 5.26 and 13.2518 and 6.093 and 5.155 and 14.4223 and 5.701 and 4.973 and 10.2833 and 5.781 and 6.3298 and 7.116 | 5.943 and 2.008 and 8.93 and 4.708 and 3.29 and 2.039 and 5.415 and 2.123 and 6.078 and 9.405 and 14.8911 and 5.538 | 3.821 and 6.41 and 2.29 and 0.9082 and 1.393 and 3.976 and 4.647 and 6.669 and 3.779 and 6.772 | 10.9265 and 4.989 and 3.478 and 3.054 and 2.195 and 4.0816 | 4.355 and 17.5013 and 19.981 and 4.864 and 5.088 and 8.156 and 15.523 and 3.088 and 7.882 and 12.3542 and 0.9184 and 8.919 and 6.947 and 9.668 | 12.73 and 36.72 and 4.56 and 4.587 and 4.664 and 11.45 and 5.307 and 5.645 and 4.368 and 3.818 | 9.668 and 4.355 and 17.5013 and 19.981 and 4.864 and 5.088 and 8.156 and 15.523 and 3.088 and 7.882 and 12.3542 and 0.9184 and 8.919 and 6.947 | 6.851 and 14.1513 and 13.0079 and 8.574 and 9.969 and 3.1593 and 5.59 and 5.656 | decreases the difference in delta between the onset inflection events | 0.4 to 1 µM | 10 µM | 0.04 µM | ~2.2 µM | 24.8 and 1.81 and 4.188 and 7.2 and 3.495 and 5.4 | exerted a similar effect on the thermal unfolding of β4
2 | CC(=O)C1CCC2C3CCC4=CC(=NOCC(=O)O)CCC4(C)C3CCC12C (stereo not shown) [PROG-oxime, progesterone 3-(O-carboxymethyl)oxime] | MCA constriction that was preserved | failed to evoke MCA dilation | – | – | – | – | – | – | – | – | – | – | actual binding to wt β1 | – | – | – | – | – | –

Source: publication PMC10636063, “Progesterone activation of β1-containing BK channels involves two binding sites” (Nature Communications, 2023)
